# Patent US10710978B2, “STK4 inhibitors for treatment of hematologic malignancies” (Dana-Farber Cancer Institute, Inc., priority 2015, dated 2020)
# Where “and” joins values, the source holds several entries; their conditions need not be identical. Equal entries are not always repeated. Where two headings read alike, the source gives them in different places.
# Legend:
# [1] = test system: ABL, ARG; assay: KiNativ assay; type: binding; details: H929 live cell
# Method: (§1) Biochemical IC50s of the compounds of the present disclosure against various kinases were measured in a KiNativ assay. Compounds were screened in duplicate at 10 μM in H929 live cell. IC50 was measured via Mass spectroscopy (MS).
# [2] = target: MST1 (Homo sapiens (Human), UniProt Q13043); assay: KiNativ assay; type: binding; details: H929 live cell
# Chain of MST1 (Q13043 whole entry): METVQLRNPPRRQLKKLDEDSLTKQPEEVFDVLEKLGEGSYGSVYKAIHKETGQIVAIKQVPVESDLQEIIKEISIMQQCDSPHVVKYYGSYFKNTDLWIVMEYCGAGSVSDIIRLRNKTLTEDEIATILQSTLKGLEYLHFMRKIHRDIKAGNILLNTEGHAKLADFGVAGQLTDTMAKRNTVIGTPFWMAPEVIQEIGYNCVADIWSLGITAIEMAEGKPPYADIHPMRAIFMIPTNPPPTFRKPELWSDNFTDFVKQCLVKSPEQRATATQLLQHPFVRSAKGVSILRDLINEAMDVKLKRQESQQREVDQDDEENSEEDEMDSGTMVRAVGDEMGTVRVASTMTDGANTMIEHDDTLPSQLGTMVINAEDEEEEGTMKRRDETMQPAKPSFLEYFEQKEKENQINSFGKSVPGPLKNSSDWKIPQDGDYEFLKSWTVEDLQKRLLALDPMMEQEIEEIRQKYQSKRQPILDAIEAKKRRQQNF
# Method: as §1
# [3] = target: MAP3K2 (Homo sapiens (Human), UniProt Q9Y2U5); assay: KiNativ assay; type: binding; details: H929 live cell
# Chain of MAP3K2 (Q9Y2U5 whole entry): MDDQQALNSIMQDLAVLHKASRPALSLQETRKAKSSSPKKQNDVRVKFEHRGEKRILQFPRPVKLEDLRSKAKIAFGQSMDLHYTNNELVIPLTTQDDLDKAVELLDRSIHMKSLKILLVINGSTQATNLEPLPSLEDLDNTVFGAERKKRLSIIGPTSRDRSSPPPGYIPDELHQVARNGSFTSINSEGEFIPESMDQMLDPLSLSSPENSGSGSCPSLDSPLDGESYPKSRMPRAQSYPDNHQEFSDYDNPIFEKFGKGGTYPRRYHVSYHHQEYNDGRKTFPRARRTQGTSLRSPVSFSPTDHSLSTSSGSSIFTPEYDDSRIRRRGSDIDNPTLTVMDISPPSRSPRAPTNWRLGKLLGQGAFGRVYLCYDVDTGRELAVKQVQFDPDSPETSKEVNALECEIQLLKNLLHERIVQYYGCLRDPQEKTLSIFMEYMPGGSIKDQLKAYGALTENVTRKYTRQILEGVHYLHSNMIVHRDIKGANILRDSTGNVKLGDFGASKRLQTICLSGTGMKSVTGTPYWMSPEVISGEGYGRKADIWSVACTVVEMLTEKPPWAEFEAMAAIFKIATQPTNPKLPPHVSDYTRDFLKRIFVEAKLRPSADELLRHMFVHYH
# Method: as §1
# [4] = target: NEK3 (Homo sapiens (Human), UniProt P51956); assay: KiNativ assay; type: binding; details: H929 live cell
# Chain of NEK3 (P51956 whole entry): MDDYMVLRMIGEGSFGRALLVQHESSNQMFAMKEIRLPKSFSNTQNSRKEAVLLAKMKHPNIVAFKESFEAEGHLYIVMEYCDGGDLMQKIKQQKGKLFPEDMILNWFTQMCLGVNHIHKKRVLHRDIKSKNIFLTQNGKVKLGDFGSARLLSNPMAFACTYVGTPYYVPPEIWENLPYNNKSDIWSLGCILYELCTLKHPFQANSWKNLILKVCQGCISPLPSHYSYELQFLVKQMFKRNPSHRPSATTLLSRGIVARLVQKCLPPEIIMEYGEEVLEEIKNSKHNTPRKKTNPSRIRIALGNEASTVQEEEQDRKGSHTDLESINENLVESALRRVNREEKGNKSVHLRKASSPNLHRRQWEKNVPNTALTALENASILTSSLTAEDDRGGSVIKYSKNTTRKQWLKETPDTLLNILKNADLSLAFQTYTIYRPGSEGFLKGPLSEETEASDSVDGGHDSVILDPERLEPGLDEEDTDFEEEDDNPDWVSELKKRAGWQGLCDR
# Method: as §1
# [5] = target: NEK1 (Homo sapiens (Human), UniProt Q96PY6); assay: KiNativ assay; type: binding; details: H929 live cell
# Method: as §1
# [6] = target: AKT1 (Homo sapiens (Human), UniProt P31749); assay: KiNativ assay; type: binding; details: H929 live cell
# Method: as §1
# [7] = target: LATS1 (Homo sapiens (Human), UniProt O95835); assay: KiNativ assay; type: binding; details: H929 live cell
# Method: as §1
# [8] = test system: AMPKa1, AMPKa2; assay: KiNativ assay; type: binding; details: H929 live cell
# Method: as §1
# [9] = target: NEK8 (Homo sapiens (Human), UniProt Q86SG6); assay: KiNativ assay; type: binding; details: H929 live cell
# Method: as §1
# [10] = test system: MAPKAPK2, MAPKAPK3; assay: KiNativ assay; type: binding; details: H929 live cell
# Method: as §1
# [11] = target: LYN (Homo sapiens (Human), UniProt P07948); assay: KiNativ assay; type: binding; details: H929 live cell
# Method: as §1
# [12] = test system: CaMK2a, CaMK2b, CaMK2d, CaMK2g; assay: KiNativ assay; type: binding; details: H929 live cell
# Method: as §1
# [13] = target: CSK (Homo sapiens (Human), UniProt P41240); assay: KiNativ assay; type: binding; details: H929 live cell
# Chain of CSK (P41240 whole entry): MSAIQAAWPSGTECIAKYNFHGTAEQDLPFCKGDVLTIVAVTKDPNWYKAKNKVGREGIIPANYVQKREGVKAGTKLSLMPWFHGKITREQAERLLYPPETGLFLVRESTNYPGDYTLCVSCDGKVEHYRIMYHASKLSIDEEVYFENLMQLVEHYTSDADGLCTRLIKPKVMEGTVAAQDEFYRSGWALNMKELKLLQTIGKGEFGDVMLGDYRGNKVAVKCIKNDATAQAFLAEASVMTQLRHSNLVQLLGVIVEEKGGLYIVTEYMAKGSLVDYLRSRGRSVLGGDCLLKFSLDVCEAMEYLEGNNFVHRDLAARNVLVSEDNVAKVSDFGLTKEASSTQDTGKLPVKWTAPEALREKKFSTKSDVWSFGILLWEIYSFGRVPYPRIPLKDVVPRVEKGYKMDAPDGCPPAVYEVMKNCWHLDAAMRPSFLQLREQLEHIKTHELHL
# Method: as §1
# [14] = target: TBK1 (Homo sapiens (Human), UniProt Q9UHD2); assay: KiNativ assay; type: binding; details: H929 live cell
# Chain of TBK1 (Q9UHD2 whole entry): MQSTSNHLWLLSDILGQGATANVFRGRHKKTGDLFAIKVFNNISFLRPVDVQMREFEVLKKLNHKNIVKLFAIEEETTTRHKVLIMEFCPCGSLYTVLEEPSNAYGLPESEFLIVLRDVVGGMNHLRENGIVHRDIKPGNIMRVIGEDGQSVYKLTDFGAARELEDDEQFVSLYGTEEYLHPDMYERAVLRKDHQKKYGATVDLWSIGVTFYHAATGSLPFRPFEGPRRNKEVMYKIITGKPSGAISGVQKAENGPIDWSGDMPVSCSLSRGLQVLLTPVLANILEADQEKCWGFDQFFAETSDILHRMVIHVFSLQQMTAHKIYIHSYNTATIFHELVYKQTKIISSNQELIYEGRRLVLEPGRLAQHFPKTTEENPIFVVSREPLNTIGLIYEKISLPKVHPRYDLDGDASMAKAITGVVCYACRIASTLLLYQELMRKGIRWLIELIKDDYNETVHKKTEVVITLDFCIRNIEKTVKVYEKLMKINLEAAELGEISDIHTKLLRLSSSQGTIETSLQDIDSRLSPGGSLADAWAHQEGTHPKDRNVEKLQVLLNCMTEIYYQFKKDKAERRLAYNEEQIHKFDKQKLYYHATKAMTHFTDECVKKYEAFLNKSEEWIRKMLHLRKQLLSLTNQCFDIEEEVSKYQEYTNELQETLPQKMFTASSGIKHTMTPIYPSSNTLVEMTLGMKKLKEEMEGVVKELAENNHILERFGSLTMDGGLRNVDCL
# Method: as §1
# [15] = target: AurA (Homo sapiens (Human), UniProt O14965); assay: KiNativ assay; type: binding; details: H929 live cell
# Chain of AurA (O14965 whole entry): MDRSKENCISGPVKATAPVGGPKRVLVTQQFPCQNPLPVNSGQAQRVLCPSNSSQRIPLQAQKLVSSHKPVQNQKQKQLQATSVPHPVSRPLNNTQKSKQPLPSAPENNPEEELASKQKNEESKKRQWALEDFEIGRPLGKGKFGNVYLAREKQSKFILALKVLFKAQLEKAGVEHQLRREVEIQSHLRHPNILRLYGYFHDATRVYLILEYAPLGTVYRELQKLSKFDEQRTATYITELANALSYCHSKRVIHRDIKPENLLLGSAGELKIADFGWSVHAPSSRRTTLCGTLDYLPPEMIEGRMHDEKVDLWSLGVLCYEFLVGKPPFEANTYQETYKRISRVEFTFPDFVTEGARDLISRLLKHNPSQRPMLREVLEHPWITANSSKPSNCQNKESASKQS
# Method: as §1
# [16] = target: IKKa (Homo sapiens (Human), UniProt O15111); assay: KiNativ assay; type: binding; details: H929 live cell
# Method: as §1
# [17] = target: CaMK1d (Homo sapiens (Human), UniProt Q8IU85); assay: KiNativ assay; type: binding; details: H929 live cell
# Chain of CaMK1d (Q8IU85 whole entry): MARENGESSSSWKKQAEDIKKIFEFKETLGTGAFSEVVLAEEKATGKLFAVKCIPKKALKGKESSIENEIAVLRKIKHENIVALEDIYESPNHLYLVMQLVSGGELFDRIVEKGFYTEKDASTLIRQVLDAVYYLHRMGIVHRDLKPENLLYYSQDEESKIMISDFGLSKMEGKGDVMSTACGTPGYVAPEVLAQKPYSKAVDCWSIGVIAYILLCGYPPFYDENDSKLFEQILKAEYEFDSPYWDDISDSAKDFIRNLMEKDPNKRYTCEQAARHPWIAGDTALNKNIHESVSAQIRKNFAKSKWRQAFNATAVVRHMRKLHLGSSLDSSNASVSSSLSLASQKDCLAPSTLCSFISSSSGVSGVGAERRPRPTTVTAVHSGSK
# Method: as §1
# [18] = target: PFTAIRE1 (Homo sapiens (Human), UniProt O94921); assay: KiNativ assay; type: binding; details: H929 live cell
# Method: as §1
# [19] = target: MST3 (Homo sapiens (Human), UniProt Q9Y6E0); assay: KiNativ assay; type: binding; details: H929 live cell
# Method: as §1
# [20] = target: NDR2 (Homo sapiens (Human), UniProt Q9Y2H1); assay: KiNativ assay; type: binding; details: H929 live cell
# Chain of NDR2 (Q9Y2H1 whole entry): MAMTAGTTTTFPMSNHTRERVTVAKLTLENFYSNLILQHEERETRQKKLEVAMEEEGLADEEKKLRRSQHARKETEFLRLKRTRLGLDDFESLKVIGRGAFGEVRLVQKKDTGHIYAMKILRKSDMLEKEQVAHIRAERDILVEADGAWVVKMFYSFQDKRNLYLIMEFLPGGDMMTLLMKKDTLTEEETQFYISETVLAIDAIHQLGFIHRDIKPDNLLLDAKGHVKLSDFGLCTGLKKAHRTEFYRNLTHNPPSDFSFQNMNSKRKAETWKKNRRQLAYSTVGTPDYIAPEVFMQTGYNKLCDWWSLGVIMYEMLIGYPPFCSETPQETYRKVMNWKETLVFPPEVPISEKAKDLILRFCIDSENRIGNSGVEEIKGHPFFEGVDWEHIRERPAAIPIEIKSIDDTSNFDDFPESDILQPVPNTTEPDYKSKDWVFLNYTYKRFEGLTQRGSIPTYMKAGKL
# Method: as §1
# [21] = target: MAST3 (Homo sapiens (Human), UniProt O60307); assay: KiNativ assay; type: binding; details: H929 live cell
# Method: as §1
# [22] = target: STLK6 (Homo sapiens (Human), UniProt Q9C0K7); assay: KiNativ assay; type: binding; details: H929 live cell
# Chain of STLK6 (Q9C0K7 whole entry): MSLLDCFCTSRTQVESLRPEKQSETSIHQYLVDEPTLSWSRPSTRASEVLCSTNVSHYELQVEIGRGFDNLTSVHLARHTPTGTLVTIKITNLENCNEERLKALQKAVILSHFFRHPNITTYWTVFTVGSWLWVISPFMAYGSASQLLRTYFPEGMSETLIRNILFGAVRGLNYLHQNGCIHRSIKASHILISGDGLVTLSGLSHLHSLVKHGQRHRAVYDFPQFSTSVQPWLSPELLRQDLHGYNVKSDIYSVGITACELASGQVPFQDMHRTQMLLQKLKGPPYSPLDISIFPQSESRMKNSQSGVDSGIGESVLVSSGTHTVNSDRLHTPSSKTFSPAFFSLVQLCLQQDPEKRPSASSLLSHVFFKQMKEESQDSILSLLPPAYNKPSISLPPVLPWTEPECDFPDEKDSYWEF
# Method: as §1
# [23] = target: PIK3CB (Homo sapiens (Human), UniProt P42338); assay: KiNativ assay; type: binding; details: H929 live cell
# Method: as §1
# [24] = target: TAO2 (Homo sapiens (Human), UniProt Q9UL54); assay: KiNativ assay; type: binding; details: H929 live cell
# Method: as §1
# [25] = target: IRE1 (Homo sapiens (Human), UniProt O75460); assay: KiNativ assay; type: binding; details: H929 live cell
# Method: as §1
# [26] = target: Erk2 (Homo sapiens (Human), UniProt P28482); assay: KiNativ assay; type: binding; details: H929 live cell
# Chain of Erk2 (P28482 whole entry): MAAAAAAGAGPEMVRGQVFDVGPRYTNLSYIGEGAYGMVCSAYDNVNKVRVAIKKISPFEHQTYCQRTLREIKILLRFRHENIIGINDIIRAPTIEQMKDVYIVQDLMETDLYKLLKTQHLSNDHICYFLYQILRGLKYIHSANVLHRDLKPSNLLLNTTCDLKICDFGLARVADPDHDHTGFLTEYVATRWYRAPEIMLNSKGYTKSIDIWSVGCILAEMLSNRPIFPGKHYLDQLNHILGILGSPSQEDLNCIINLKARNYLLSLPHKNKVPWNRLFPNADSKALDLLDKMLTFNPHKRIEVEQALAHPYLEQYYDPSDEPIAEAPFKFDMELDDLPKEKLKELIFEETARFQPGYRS
# Method: as §1
# [27] = test system: MAP2K1, MAP2K2; assay: KiNativ assay; type: binding; details: H929 live cell
# Method: as §1
# [28] = target: STK24 (MST3) (Homo sapiens (Human), UniProt Q9Y6E0); assay: Z-lyte biochemical IC50 assay (Invitrogen); details: ATP concentration matched the Km
# Procedure, shortened: (§2)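 FRET-based Z-lyte kinase assays run at Invitrogen, ATP at each kinase's Km; for STK4, 6.25-160 ng enzyme with 2 μM Ser/Thr 07 peptide in HEPES pH 7.5, MgCl2, EGTA, Brij-35, 1 h reaction then development reagent. 10-point 3-fold titration from 10 μM.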
# [29] = target: STK4 (MST1) (Homo sapiens (Human), UniProt Q13043); assay: Z-lyte biochemical IC50 assay (Invitrogen); details: ATP concentration matched the Km
# Chain of STK4 (MST1) (Q13043 whole entry): as the sequence (Q13043 whole entry) above
# Procedure, shortened: as §2
structure (smiles),measurement,setting,value
"CN(C1CC1)S(=O)(=O)c1ccc(-c2cnc(N)c(-c3ccc4c(c3)CCNC4=O)c2)c(F)c1 [Compound I-28, 4-(6-amino-5-(1-oxo-1,2,3,4-tetrahydroisoquinolin-6-yl)pyridin-3-yl)-N-cyclopropyl-3-fluoro-N-methylbenzenesulfonamide]",% inhibition (range),[1]; 10 μM,0.0%
same,inhibition (10 μM),[1],13.3%
same,inhibition at 10 µM,[2]; read-out: % inhibition (range),> 90%
same,inhibition at 10 µM,[2]; read-out: inhibition (10 μM),94.5%
same,inhibition at 10 µM,[3]; read-out: % inhibition (range),0%
same,inhibition at 10 µM,[3]; read-out: inhibition (10 μM),7%
same,inhibition at 10 µM,[4]; read-out: % inhibition (range),0%
same,inhibition at 10 µM,[4]; read-out: inhibition (10 μM),-27.2%
same,inhibition at 10 µM,[5]; read-out: % inhibition (range),0%
same,inhibition at 10 µM,[5]; read-out: inhibition (10 μM),-14.1%
same,inhibition at 10 µM,[6]; read-out: % inhibition (range),0%
same,inhibition at 10 µM,[6]; read-out: inhibition (10 μM),11.1%
same,inhibition at 10 µM,[7]; read-out: % inhibition (range),0%
same,inhibition at 10 µM,[7]; read-out: inhibition (10 μM),4.8%
same,% inhibition (range),[8]; 10 μM,0.0%
same,inhibition (10 μM),[8],−1.6%
same,inhibition at 10 µM,[9]; read-out: % inhibition (range),0%
same,inhibition at 10 µM,[9]; read-out: inhibition (10 μM),-3.4%
same,% inhibition (range),[10]; 10 μM,0.0%
same,inhibition (10 μM),[10],−5.0%
same,inhibition at 10 µM,[11]; read-out: % inhibition (range),0%
same,inhibition at 10 µM,[11]; read-out: inhibition (10 μM),-10.3%
same,% inhibition (range),[12]; 10 μM,0.0%
same,inhibition (10 μM),[12],1.4%
same,inhibition at 10 µM,[13]; read-out: % inhibition (range),0%
same,inhibition at 10 µM,[13]; read-out: inhibition (10 μM),3.7%
same,inhibition at 10 µM,[14]; read-out: % inhibition (range),0%
same,inhibition at 10 µM,[14]; read-out: inhibition (10 μM),3.4%
same,inhibition (10 μM),[15],33.1%
same,inhibition at 10 µM,[15]; read-out: % inhibition (range),0%
same,inhibition at 10 µM,[15]; read-out: inhibition (10 μM),27.5%
same,inhibition at 10 µM,[16]; read-out: % inhibition (range),0%
same,inhibition at 10 µM,[16]; read-out: inhibition (10 μM),6.4%
same,inhibition at 10 µM,[17]; read-out: % inhibition (range),0%
same,inhibition at 10 µM,[17]; read-out: inhibition (10 μM),15.2%
same,inhibition at 10 µM,[18]; read-out: % inhibition (range),0%
same,inhibition at 10 µM,[18]; read-out: inhibition (10 μM),22.2%
same,inhibition at 10 µM,[19]; read-out: % inhibition (range),50 to 75%
same,inhibition at 10 µM,[19]; read-out: inhibition (10 μM),72.3%
same,inhibition at 10 µM,[20]; read-out: % inhibition (range),0%
same,inhibition at 10 µM,[20]; read-out: inhibition (10 μM),24.2%
same,inhibition at 10 µM,[21]; read-out: % inhibition (range),0%
same,inhibition at 10 µM,[21]; read-out: inhibition (10 μM),14.2%
same,inhibition at 10 µM,[22]; read-out: % inhibition (range),0%
same,inhibition at 10 µM,[22]; read-out: inhibition (10 μM),1.4%
same,inhibition at 10 µM,[23]; read-out: % inhibition (range),0%
same,inhibition at 10 µM,[23]; read-out: inhibition (10 μM),1.9%
same,inhibition at 10 µM,[24]; read-out: % inhibition (range),50 to 75%
same,inhibition at 10 µM,[24]; read-out: inhibition (10 μM),61.5%
same,inhibition at 10 µM,[25]; read-out: % inhibition (range),0%
same,inhibition at 10 µM,[25]; read-out: inhibition (10 μM),-34.1%
same,inhibition at 10 µM,[26]; read-out: % inhibition (range),0%
same,inhibition at 10 µM,[26]; read-out: inhibition (10 μM),13.9%
same,% inhibition (range),[27]; 10 μM,0.0%
same,inhibition (10 μM),[27],0.5% and −0.9%
same,IC50,[28],40 to 200 nM
same,IC50,[29],< 40 nM
